# Reference: article PMC10709440, “High-throughput ligand profile characterization in novel cell lines expressing seven heterologous insect olfactory receptors for the detection of volatile plant biomarkers” (Scientific Reports, 2023)
# Several values for one entry are separate records, joined by “and”; a condition that tells them apart may be missing. Equal values may be shown once. Read-outs that look alike come from different tables or passages of the source.
# What was measured:
# Drosophila OR47a = target: T1, Drosophila OR47a (Drosophila melanogaster, UniProt P81921); assay: Calcium ion fluorescence (GCaMP6) assay, OR47a stable HEK293 cell line; assay type: cell-based; conditions: for Average response / OR47a response (VUAA1-normalized) at 1 μM / OR47a response (VUAA1-normalized) at 10 μM / OR47a response (VUAA1-normalized) at 100 μM: OR47a cell line; for Average response: mean of biological replicates; for OR47a response (VUAA1-normalized) at 1 μM: VOC concentration 1 μM; for OR47a response (VUAA1-normalized) at 10 μM: VOC concentration 10 μM; for OR47a response (VUAA1-normalized) at 100 μM: VOC concentration 100 μM
# T1 construct: expressed in transfected cells
# T1 sequence (P81921 1-385): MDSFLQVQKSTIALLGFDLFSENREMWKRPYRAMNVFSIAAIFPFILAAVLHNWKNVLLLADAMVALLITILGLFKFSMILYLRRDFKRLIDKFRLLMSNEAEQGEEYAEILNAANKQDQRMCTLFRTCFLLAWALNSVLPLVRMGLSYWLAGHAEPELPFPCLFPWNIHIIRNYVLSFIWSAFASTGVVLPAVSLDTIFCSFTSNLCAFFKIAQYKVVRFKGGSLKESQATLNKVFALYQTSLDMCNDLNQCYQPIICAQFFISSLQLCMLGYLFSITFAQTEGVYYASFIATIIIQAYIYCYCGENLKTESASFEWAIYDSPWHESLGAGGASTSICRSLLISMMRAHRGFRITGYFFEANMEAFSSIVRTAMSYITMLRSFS
# T1 sequence (Q9VNB5 1-486 partner): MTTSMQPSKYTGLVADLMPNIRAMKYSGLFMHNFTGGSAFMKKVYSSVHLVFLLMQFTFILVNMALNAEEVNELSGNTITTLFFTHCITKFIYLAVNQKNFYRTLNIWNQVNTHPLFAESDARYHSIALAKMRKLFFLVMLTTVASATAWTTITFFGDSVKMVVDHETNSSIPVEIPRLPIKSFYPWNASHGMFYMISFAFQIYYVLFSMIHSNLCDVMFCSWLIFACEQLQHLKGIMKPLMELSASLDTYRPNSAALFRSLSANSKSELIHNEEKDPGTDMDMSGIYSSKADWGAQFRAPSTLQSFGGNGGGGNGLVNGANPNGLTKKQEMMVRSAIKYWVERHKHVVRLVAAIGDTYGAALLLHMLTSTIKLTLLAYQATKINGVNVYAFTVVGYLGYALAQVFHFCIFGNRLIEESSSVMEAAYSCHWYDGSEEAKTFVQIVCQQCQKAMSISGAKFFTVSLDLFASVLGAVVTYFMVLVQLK
# Procedure, shortened: (§1)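 HEK293 lines stably expressing each Drosophila OR with GCaMP6, doxycycline-induced (1 μg/mL) 48 or 72 h. Fluorescence recorded 5 s baseline then 30 s after VOC injection at pH 7.3; ΔF=(FMAX−F0)/F0, normalized to 50 µM VUAA1 response per line, triplicate wells averaged; concentration series 0.01–100 μM.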
# Drosophila OR10a = target: T2, Drosophila OR10a (Drosophila melanogaster, UniProt Q9VYZ1); assay: Calcium ion fluorescence (GCaMP6) assay, OR10a stable HEK293 cell line; assay type: cell-based; conditions: for OR10a response (VUAA1-normalized) at 1 μM / OR10a response (VUAA1-normalized) at 10 μM / OR10a response (VUAA1-normalized) at 100 μM: OR10a cell line; for OR10a response (VUAA1-normalized) at 1 μM: VOC concentration 1 μM; for OR10a response (VUAA1-normalized) at 10 μM: VOC concentration 10 μM; for OR10a response (VUAA1-normalized) at 100 μM: VOC concentration 100 μM
# T2 construct: expressed in transfected cells
# T2 sequence (Q9VYZ1 1-406): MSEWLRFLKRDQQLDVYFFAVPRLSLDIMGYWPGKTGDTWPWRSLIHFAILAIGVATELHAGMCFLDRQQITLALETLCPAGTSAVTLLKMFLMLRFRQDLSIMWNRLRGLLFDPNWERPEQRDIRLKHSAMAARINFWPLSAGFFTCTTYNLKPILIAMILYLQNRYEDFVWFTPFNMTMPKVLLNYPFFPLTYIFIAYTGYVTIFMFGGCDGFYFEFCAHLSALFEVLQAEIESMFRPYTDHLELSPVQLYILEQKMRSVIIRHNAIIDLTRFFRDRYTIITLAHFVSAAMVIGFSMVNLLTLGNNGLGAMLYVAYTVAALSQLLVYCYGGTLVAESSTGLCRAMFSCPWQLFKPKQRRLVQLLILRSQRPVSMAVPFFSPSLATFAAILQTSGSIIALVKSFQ
# T2 sequence (Q9VNB5 1-486 partner): T1 sequence (Q9VNB5 1-486 partner)
# Procedure, shortened: as §1
# [1] = HEK293, read-out: OR47a Average response (VUAA1-normalized)
# [2] = ligand concentration 1 (unit not given), 0.05 threshold, values below shown as 0
# [3] = ligand concentration 10 (unit not given), 0.05 threshold, values below shown as 0
# [4] = ligand concentration 100 (unit not given), 0.05 threshold, values below shown as 0
# [5] = 100 µM, OR10a clone G5, single plate 2019.12.05
# [6] = HEK293, 1 μM VOC, 50 μM VUAA1 = 1, responses not exceeding 0.05 considered 0, read-out: OR10a Average response (VUAA1-normalized)
# [7] = HEK293, 10 μM VOC, 50 μM VUAA1 = 1, responses not exceeding 0.05 considered 0, read-out: OR10a Average response (VUAA1-normalized)
# [8] = HEK293, 100 μM VOC, 50 μM VUAA1 = 1, responses not exceeding 0.05 considered 0, read-out: OR10a Average response (VUAA1-normalized)
# [9] = ligand concentration 1 (unit not given), threshold 0.05, below shown as 0
# [10] = ligand concentration 10 (unit not given), threshold 0.05, below shown as 0
# [11] = ligand concentration 100 (unit not given), threshold 0.05, below shown as 0
# [12] = HEK293, read-out: OR47a response (VUAA1-normalized response)
# [13] = concentration 1, normalized fluorescence change, values below 0.05 threshold given as 0
# [14] = concentration 10, normalized fluorescence change, values below 0.05 threshold given as 0
# [15] = concentration 100, normalized fluorescence change, values below 0.05 threshold given as 0
# [16] = HEK293, read-out: OR10a response (VUAA1-normalized response), VOC concentration 1 μM
# [17] = HEK293, read-out: OR10a response (VUAA1-normalized response), VOC concentration 10 μM
# [18] = HEK293, read-out: OR10a response (VUAA1-normalized response), VOC concentration 100 μM
Compound,Average response (Drosophila OR47a; odorant cc. 1 µM),Average response (Drosophila OR47a; odorant cc. 10 µM),Average response (Drosophila OR47a; odorant cc. 100 µM),DF norm AVERAGE OR47a (Drosophila OR47a; [2]),DF norm AVERAGE OR47a (Drosophila OR47a; [3]),DF norm AVERAGE OR47a (Drosophila OR47a; [4]),activation at 1 µM (Drosophila OR10a; [6]) [%],activation at 10 µM (Drosophila OR10a; [7]) [%],activation at 100 µM (Drosophila OR10a; [8]) [%],DF norm AVERAGE OR10a (Drosophila OR10a; [3]),DF norm AVERAGE OR10a (Drosophila OR10a; [4]),activation at 1 µM (Drosophila OR47a; [12]) [%],activation at 10 µM (Drosophila OR47a; [12]) [%],activation at 100 µM (Drosophila OR47a; [12]) [%],DF norm AVERAGE OR47a (Drosophila OR47a; [13]),DF norm AVERAGE OR47a (Drosophila OR47a; [14]),DF norm AVERAGE OR47a (Drosophila OR47a; [15]),activation at 1 µM (Drosophila OR10a; [16]) [%],activation at 10 µM (Drosophila OR10a; [17]) [%],activation at 100 µM (Drosophila OR10a; [18]) [%],further results
CC/C=C\CCOC(C)=O [z3-hexenyl acetate],0.35,0.67,0.76,0.3542,0.669,0.7586,14,0,0,0,0,–,–,–,–,–,–,–,–,–,"activation at 1 µM (Drosophila OR47a; [1]): 35%; activation at 10 µM (Drosophila OR47a; [1]): 67%; activation at 100 µM (Drosophila OR47a; [1]): 76%; DF norm, all technical replicates (Drosophila OR10a; [5]): 0; DF norm, outlier technical replicates removed (Drosophila OR10a; [5]): 0; DF, outlier technical replicates removed (Drosophila OR10a; [5]): 0; DF, all technical replicates (Drosophila OR10a; 100 µM, OR10a clone G5, single plate 2019.12.05, xc+0.1%DMSO): 0; DF norm AVERAGE OR10a (Drosophila OR10a; ligand concentration 1 (unit not given), […]): 0.1361"
Cc1cccc(C)c1 [m-xylene],0.00,0.00,0.00,–,–,–,–,–,–,–,–,–,–,–,–,–,–,–,–,–,"OR47a response (VUAA1-normalized) at 1 μM (Drosophila OR47a): 0.00; OR47a response (VUAA1-normalized) at 10 μM (Drosophila OR47a): 0.00; OR47a response (VUAA1-normalized) at 100 μM (Drosophila OR47a): 0.00; DF norm AVERAGE OR47a (Drosophila OR47a; [9]): 0; DF norm AVERAGE OR47a (Drosophila OR47a; [10]): 0; DF norm AVERAGE OR47a (Drosophila OR47a; [11]): 0; activation at 1 µM (Drosophila OR10a; HEK293, read-out: OR10a Average response (VUAA1-normalized), 1 μM VOC, 50 μM VUAA1 = 1, responses not exceeding 0.05 considered 0): 0%; activation at 10 µM (Drosophila OR10a; HEK293, read-out: OR10a Average response (VUAA1-normalized), 10 μM VOC, 50 μM VUAA1 = 1, responses not exceeding 0.05 considered 0): 0%; activation at 100 µM (Drosophila OR10a; HEK293, read-out: OR10a Average response (VUAA1-normalized), 100 μM VOC, 50 μM VUAA1 = 1, responses not exceeding 0.05 considered 0): 2%; OR10a response (VUAA1-normalized) at 1 μM (Drosophila OR10a): 0.00; OR10a response (VUAA1-normalized) at 10 μM (Drosophila OR10a): 0.00; OR10a response (VUAA1-normalized) at 100 μM (Drosophila OR10a): 0.00; DF norm AVERAGE OR10a (Drosophila OR10a; [9]): 0; DF norm AVERAGE OR10a (Drosophila OR10a; [10]): 0; DF norm AVERAGE OR10a (Drosophila OR10a; [11]): 0"
CCCCC(C)O (stereo not drawn) [2-hexanol],0.04,0.00,0.05,–,–,–,2.54,0,0,–,–,0,0,5,0,0,0.05091,0,0,0,DF norm AVERAGE OR10a (Drosophila OR10a): 0
Cc1ccc(O)cc1 [4-methylphenol],0.10,0.0217,0.0542,–,–,–,2.37,1.81,6.62,–,–,10,0,5.42,0.1,0,0.05422,0,0,6.62,–
CC1=CCC23CC1C(C)(C)C2CCC3C (stereo not drawn) [α-funebrene],0.00,0.00,0.00,0,0,0,0,0,2.42,0,0,–,–,–,–,–,–,–,–,–,OR47a response (VUAA1-normalized) at 1 μM (Drosophila OR47a): 0.00; OR47a response (VUAA1-normalized) at 10 μM (Drosophila OR47a): 0.00; OR47a response (VUAA1-normalized) at 100 μM (Drosophila OR47a): 0.00; OR10a response (VUAA1-normalized) at 1 μM (Drosophila OR10a): 0.00; OR10a response (VUAA1-normalized) at 10 μM (Drosophila OR10a): 0.00; OR10a response (VUAA1-normalized) at 100 μM (Drosophila OR10a): 0.00; DF norm AVERAGE OR10a (Drosophila OR10a; [2]): 0
CCCCCCCCC(CO)CCCCCC (stereo not drawn) [2-hexyl-1-decanol],0.00,0.05,0.00,–,–,–,15,11,19,–,–,0,0,0,0,0,0,15,11,19,DF norm AVERAGE OR10a (Drosophila OR10a): 0.1461 and 0.1055 and 0.1938
